Several values for one entry are separate records, joined by “and”; a condition that tells them apart may be missing. Identical values can stand only once.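 Briefly, cells in 96-well plates were exposed to five compound concentrations for 48 h, and endpoints were estimated by linear interpolation. GI50 is the concentration that inhibits growth by half.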 Activity calls are given as the source filed them. Cut-off read from the data, not from the text of the source: active = GI50 up to about 1.1 µM and inactive = higher.
Columns and labels:
Experiment in all cases: NCI anticancer screen, dose series, 48 h
OVCAR-3 = test system: OVCAR-3
ACHN = test system: ACHN
TK-10 = test system: TK-10
CCRF-CEM = test system: CCRF-CEM
K562 = test system: K562
UO-31 = test system: UO-31
OVCAR-5 = test system: OVCAR-5
UACC-257 = test system: UACC-257
MCF7 = test system: MCF7
OVCAR-4 = test system: OVCAR-4
Hs-578T = test system: Hs-578T
IGROV-1 = test system: IGROV-1
SW-620 = test system: SW-620
HCT-116 = test system: HCT-116
OVCAR-8 = test system: OVCAR-8
SF-539 = test system: SF-539
SF-295 = test system: SF-295
NCI-H23 = test system: NCI-H23
HOP-92 = test system: HOP-92
UACC-62 = test system: UACC-62

Structure (SMILES) | GI50 (OVCAR-3) | GI50 (ACHN) | GI50 (TK-10) | GI50 (CCRF-CEM) | GI50 (K562) | GI50 (UO-31) | GI50 (OVCAR-5) | GI50 (UACC-257) | GI50 (MCF7) | GI50 (OVCAR-4) | GI50 (Hs-578T) | GI50 (IGROV-1) | GI50 (SW-620) | GI50 (HCT-116) | GI50 (OVCAR-8) | GI50 (SF-539) | GI50 (SF-295) | GI50 (NCI-H23) | GI50 (HOP-92) | GI50 (UACC-62)
COC(=O)c1ccc(-c2nc(C#N)c(N)o2)cc1 | > 100 µM (inactive) | > 100 µM (inactive) | > 100 µM (inactive) | > 100 µM (inactive) | > 100 µM (inactive) | > 100 µM (inactive) | > 100 µM (inactive) | > 100 µM (inactive) | > 100 µM (inactive) | > 100 µM (inactive) | 32.2 µM (inactive) | 99.8 µM (inactive) | > 100 µM (inactive) | > 100 µM (inactive) | 57.1 µM (inactive) | > 100 µM (inactive) | > 100 µM (inactive) | 35.8 µM (inactive) |  | 
CC1OC(OC2C(OC(=O)[C@]34CCC(C)(C)C[C@H]3C3=CC[C@@H]5[C@@]6(C)CC[C@H](OC7OC(CO)C(O)C(O)C7OC7OC(CO)C(O)C(O)C7O)C(C)(C)[C@@H]6CC[C@@]5(C)[C@]3(C)CC4)OCC(O)C2O)C(O)C(O)C1OC1OCC(O)C(OC2OCC(O)C(O)C2O)C1O (stereo partly drawn) | 10.7 µM (inactive) and 6.5 µM (inactive) | 5.98 µM (inactive) and 4.8 µM (inactive) | 8.41 µM (inactive) and 8.63 µM (inactive) | 11.3 µM (inactive) and 13.2 µM (inactive) | 4.6 µM (inactive) and 3.77 µM (inactive) | 1.88 µM (inactive) and 1.99 µM (inactive) | 4.86 µM (inactive) and 5.37 µM (inactive) | 2.22 µM (inactive) and 2.33 µM (inactive) |  | 7.19 µM (inactive) and 5.41 µM (inactive) | 13.5 µM (inactive) and 12.9 µM (inactive) | 11.9 µM (inactive) and 8.38 µM (inactive) | 10.4 µM (inactive) and 11 µM (inactive) | 5.04 µM (inactive) and 3.85 µM (inactive) | 7.74 µM (inactive) and 11.6 µM (inactive) | 29.2 µM (inactive) and 19.5 µM (inactive) | 3.44 µM (inactive) and 3.78 µM (inactive) | 2.42 µM (inactive) and 3.1 µM (inactive) | 1.92 µM (inactive) and 2.15 µM (inactive) | 2.21 µM (inactive) and 2.5 µM (inactive)
N#CCCC1(CCC#N)CCCCCCCCC(CCC#N)(CCC#N)C(O)C1O (stereo not drawn) | > 100 µM (inactive) | > 100 µM (inactive) | 74.8 µM (inactive) |  | > 100 µM (inactive) |  | > 100 µM (inactive) | > 100 µM (inactive) | > 100 µM (inactive) | > 100 µM (inactive) | 52 µM (inactive) | > 100 µM (inactive) | > 100 µM (inactive) | > 100 µM (inactive) | > 100 µM (inactive) | 29.8 µM (inactive) | > 100 µM (inactive) | > 100 µM (inactive) | > 100 µM (inactive) | > 100 µM (inactive)
CC(=O)Oc1ccc(-c2cc3ccccc3oc2=O)cc1OC(C)=O |  | 16.8 µM (inactive) | 22.1 µM (inactive) | 5.3 µM (inactive) | 27.5 µM (inactive) | 10.9 µM (inactive) | 15.9 µM (inactive) | 24.4 µM (inactive) | 59.2 µM (inactive) | 51.3 µM (inactive) | 35.9 µM (inactive) |  | 33.3 µM (inactive) | 34.7 µM (inactive) | 24.1 µM (inactive) | 21.6 µM (inactive) | 28.2 µM (inactive) | 53.2 µM (inactive) |  | 
O=C(NCCC1CN(S(=O)(=O)C(F)(F)F)c2ccccc21)OCc1ccccc1 (stereo not drawn) | > 100 µM (inactive) | > 100 µM (inactive) |  | 38.6 µM (inactive) | 66.1 µM (inactive) | > 100 µM (inactive) | > 100 µM (inactive) | > 100 µM (inactive) | > 100 µM (inactive) | > 100 µM (inactive) | 76.6 µM (inactive) | > 100 µM (inactive) | > 100 µM (inactive) | > 100 µM (inactive) | > 100 µM (inactive) |  | > 100 µM (inactive) | > 100 µM (inactive) | 77.4 µM (inactive) | > 100 µM (inactive)
CCN(CC)CCCNc1nncc2cc3c([nH]c4ccccc43)c(C)c12 | 10.4 µM (inactive) | 10.2 µM (inactive) | 20.9 µM (inactive) | 4.1 µM (inactive) | 7.03 µM (inactive) | 12.1 µM (inactive) | 14.4 µM (inactive) | 15.6 µM (inactive) | 13.6 µM (inactive) |  | 14.1 µM (inactive) | 3.12 µM (inactive) | 4.4 µM (inactive) | 6.01 µM (inactive) | 7.29 µM (inactive) | 16 µM (inactive) | 16 µM (inactive) | 14.1 µM (inactive) |  | 15.7 µM (inactive)
[O-][S+](CCc1ccccc1)Nc1ccccc1 (stereo not drawn) | > 100 µM (inactive) | > 100 µM (inactive) | > 100 µM (inactive) | > 100 µM (inactive) | > 100 µM (inactive) | > 100 µM (inactive) | > 100 µM (inactive) | 99.3 µM (inactive) | > 100 µM (inactive) |  | 0.0406 µM (active) | > 100 µM (inactive) | > 100 µM (inactive) | > 100 µM (inactive) | > 100 µM (inactive) | > 100 µM (inactive) | > 100 µM (inactive) | > 100 µM (inactive) |  | 
c1ccc(CCc2cccnc2)nc1 | > 100 µM (inactive) | > 100 µM (inactive) | > 100 µM (inactive) |  | 52.4 µM (inactive) | > 100 µM (inactive) | > 100 µM (inactive) | > 100 µM (inactive) | > 100 µM (inactive) | > 100 µM (inactive) | > 100 µM (inactive) | > 100 µM (inactive) | > 100 µM (inactive) | > 100 µM (inactive) | > 100 µM (inactive) | > 100 µM (inactive) | > 100 µM (inactive) | > 100 µM (inactive) | > 100 µM (inactive) | > 100 µM (inactive)
CC1CC(N)=C(C#N)C1(C#N)C#N (stereo not drawn) |  | > 100 µM (inactive) | > 100 µM (inactive) |  | > 100 µM (inactive) | > 100 µM (inactive) | > 100 µM (inactive) | > 100 µM (inactive) | > 100 µM (inactive) |  | > 100 µM (inactive) | > 100 µM (inactive) | > 100 µM (inactive) | > 100 µM (inactive) | > 100 µM (inactive) | > 100 µM (inactive) | > 100 µM (inactive) | > 100 µM (inactive) | > 100 µM (inactive) | > 100 µM (inactive)
CC(=O)O[C@H]1C(=O)[C@@]2(C)[C@H]([C@H](OC(=O)c3ccc(F)cc3)[C@]3(O)C[C@H](OC(=O)[C@H](O)[C@@H](NC(=O)c4ccccc4)c4ccccc4)C(C)=C1C3(C)C)[C@]1(OC(C)=O)CO[C@@H]1C[C@@H]2O | 0.00557 µM (active) | 0.802 µM (active) | 0.416 µM (active) | 0.00819 µM (active) | 0.00859 µM (active) | 5.92 µM (inactive) | 0.0222 µM (active) | 0.0399 µM (active) | 0.00334 µM (active) | 6.58 µM (inactive) | 0.00536 µM (active) | 0.0233 µM (active) | 0.0065 µM (active) | 0.00608 µM (active) | 0.0181 µM (active) | 0.0102 µM (active) | 0.168 µM (active) | 0.124 µM (active) |  | 0.0199 µM (active)
COc1ccc(N[S+]([O-])CCc2ccccc2)cc1 (stereo not drawn) | > 100 µM (inactive) | > 100 µM (inactive) | > 100 µM (inactive) | > 100 µM (inactive) | 73.3 µM (inactive) | > 100 µM (inactive) | > 100 µM (inactive) | > 100 µM (inactive) | > 100 µM (inactive) |  | 23.4 µM (inactive) | 92.5 µM (inactive) | > 100 µM (inactive) | > 100 µM (inactive) | > 100 µM (inactive) | > 100 µM (inactive) | > 100 µM (inactive) | > 100 µM (inactive) |  | 
Cc1cn(CC2=NCC(C)(C)CN2)c(=O)[nH]c1=O |  | > 100 µM (inactive) | > 100 µM (inactive) | > 100 µM (inactive) |  | > 100 µM (inactive) | > 100 µM (inactive) | > 100 µM (inactive) | > 100 µM (inactive) |  | > 100 µM (inactive) | > 100 µM (inactive) | > 100 µM (inactive) | > 100 µM (inactive) | > 100 µM (inactive) |  | > 100 µM (inactive) | > 100 µM (inactive) | > 100 µM (inactive) | > 100 µM (inactive)
C=CC[C@@]12CCC(=O)C=C1CCCC2=O | > 100 µM (inactive) | > 100 µM (inactive) | > 100 µM (inactive) |  | > 100 µM (inactive) | > 100 µM (inactive) | > 100 µM (inactive) | > 100 µM (inactive) | > 100 µM (inactive) | > 100 µM (inactive) | > 100 µM (inactive) | > 100 µM (inactive) | > 100 µM (inactive) | > 100 µM (inactive) |  | > 100 µM (inactive) | > 100 µM (inactive) | > 100 µM (inactive) | > 100 µM (inactive) | > 100 µM (inactive)
CCOC(=O)C1(O)C(=O)C2=C3C(=O)OC(C4OC(=O)c5c(c(O)c(O)c(O)c5C31)-c1c(cc(O)c(O)c1O)C(=O)OC1COC(=O)c3cc(O)c(O)c(O)c3-c3c(cc(O)c(O)c3O)C(=O)OC14)[C@@H]2O (stereo partly drawn) | 32.6 µM (inactive) | 17.8 µM (inactive) |  | 17.2 µM (inactive) | 20.7 µM (inactive) | 26.4 µM (inactive) | 15.9 µM (inactive) | 28.5 µM (inactive) | 18.7 µM (inactive) | 17.6 µM (inactive) | 30.8 µM (inactive) | 26 µM (inactive) | 20.7 µM (inactive) | 15.6 µM (inactive) | 19.8 µM (inactive) |  | 19.1 µM (inactive) | 16.3 µM (inactive) | 23 µM (inactive) | 20 µM (inactive)

— ChEMBL document CHEMBL1201862, “PubChem BioAssay data set” (2004)
